Test results published in patent US8791141B2, “Organic compounds” (Novartis AG, priority 2008, dated 2014).
Structures can show the parent of a compound that is named as a salt.

Tests used:
[1] = target: T1, CYP11B2 (aldosterone synthase) (Homo sapiens, UniProt P19099); assay: Inhibition of aldosterone secretion in NCI-H295R cells; assay type: cell-based; conditions: human adrenocortical carcinoma NCI-H295R cells, 24 hours with cell stimulant
T1 construct: the NCI-H295R cells have CYP11B2 (aldosterone synthase) and CYP11B1 (steroid 11-hydroxylase); host or cells: NCI-H295R
T1 sequence (P19099 25-503): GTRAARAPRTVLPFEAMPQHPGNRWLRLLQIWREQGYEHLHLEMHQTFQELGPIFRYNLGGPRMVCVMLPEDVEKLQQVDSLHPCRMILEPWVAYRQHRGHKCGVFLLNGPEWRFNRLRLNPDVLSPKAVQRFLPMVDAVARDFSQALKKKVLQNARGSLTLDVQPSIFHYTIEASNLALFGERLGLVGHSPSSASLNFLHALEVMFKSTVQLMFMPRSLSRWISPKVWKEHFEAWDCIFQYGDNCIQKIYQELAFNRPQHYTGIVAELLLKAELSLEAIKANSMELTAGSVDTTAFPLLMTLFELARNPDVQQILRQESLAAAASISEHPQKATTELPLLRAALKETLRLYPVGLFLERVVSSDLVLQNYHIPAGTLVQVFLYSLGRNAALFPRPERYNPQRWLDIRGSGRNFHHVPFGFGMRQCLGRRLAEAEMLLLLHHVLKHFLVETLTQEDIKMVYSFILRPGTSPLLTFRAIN
Excerpt: (§1) The activities of a compound according to the present invention can be assessed by the following in vitro method well-described in the art.
(§2) In particular, the inhibition of aldosterone and cortisol secretion in vitro can be determined by the following assay.
(§3) The cell line NCI-H295R was originally isolated from an adrenocortical carcinoma and has been characterized in the literature through the stimulable secretion of steroid hormones and the presence of the enzymes essential for steroidogenesis. The cells show the physiological property of zonally undifferentiated human foetal adrenocortical cells which, however, have the capacity to produce the steroid hormones which are formed in the three phenotypically distinguishable zones in the adult adrenal cortex. Thus, the NCI-H295R cells have CYP11B2 (aldosterone synthase) and CYP11B1 (steroid 11-hydroxylase).
(§4) The human adrenocortical carcinoma NCI-H295R cell line is obtained from American Type Culture Collection (Manassas, Va.). Insulin/transferrin/selenium (ITS)-A supplement (100×), DMEM/F-12, antibiotic/antimycotic (100×), and fetal calf serum (FCS) are purchased from Invitrogen (Carlsbad, Calif.). Anti-mouse PVT scintillation proximity assay (SPA) beads and NBS 96-well plates are obtained from Amersham (Piscataway, N.J.) and Corning (Acton, Mass.), respectively. Clear bottom 96-well flat bottom plates are purchased from Costar (Corning, N.Y.). Aldosterone and angiotensin (Ang II) are purchased from Sigma (St. Louis, Mo.). D[1,2,6,7-3H(N)]aldosterone and [1,2,6,7-3H(N)]cortisol are acquired from PerkinElmer (Boston, Mass.). Nu-serum is a product of BD Biosciences (Franklin Lakes, N.J.).
(§5) For in vitro measurement of aldosterone and cortisol activity, human adrenocortical carcinoma NCI-H295R cells are seeded in NBS 96-well plates at a density of 25,000 cells/well in 100 μL of a growth medium containing DMEM/F12 supplemented with 10% FCS, 2.5% Nu-serum, 1 μg ITS/ml, and 1× antibiotic/antimycotic. The medium is changed after culturing for 3 days at 37° C. under an atmosphere of 5% CO2/95% air. On the following day, cells are rinsed with 100 μL of DMEM/F12 and incubated in quadruplicate wells at 37° C. for 24 hours with 100 μL of treatment medium containing a cell stimulant and a compound at different concentrations. […] Cell stimulants which can be used are angiotensin-II (1 micromolar), potassium ions (16 millimolar), forskolin (10 micromolar) or a combination of two stimulants. At the end of incubation, the excretion of aldosterone and cortisol into the culture medium can be detected and quantified by commercially available, specific monoclonal antibodies in radioimmunoassays in accordance with the manufacturer's instructions.
(§6) Measurement of aldosterone can also be performed using a 96-well plate format. Each test sample is incubated with 0.02 μCi of D[1,2,6,7-3H(N)]aldosterone and 0.3 μg of anti-aldosterone antibody in phosphate-buffered saline (PBS) containing 0.1% Triton X-100, 0.1% bovine serum albumin, and 12% glycerol in a total volume of 200 μL at room temperature for 1 hour. Anti-mouse PVT SPA beads (50 μL) are then added to each well and incubated overnight at room temperature prior to counting in a Microbeta plate counter. The amount of aldosterone in each sample is calculated by comparing with a standard curve generated using known quantities of the hormone. Measurement of cortisol can be performed in a manner similar to that of aldosterone, except that [1,2,6,7-3H(N)]cortisol is used.
(§7) Inhibition of the release of a steroid can be used as a measure of the respective enzyme inhibition by the added test compounds. The dose-dependent inhibition of enzymatic activity by a compound is calculated by means of an inhibition plot which is characterized by an IC50. […] The inhibition plot is calculated by fitting a 4-parameter logistic function to the raw data points using the least squares method.

[2] = target: T2, CYP11B1 (steroid 11-hydroxylase) (Homo sapiens, UniProt P15538); assay: Inhibition of cortisol secretion in NCI-H295R cells; assay type: cell-based; conditions: human adrenocortical carcinoma NCI-H295R cells, 24 hours with cell stimulant
T2 construct: the NCI-H295R cells have CYP11B2 (aldosterone synthase) and CYP11B1 (steroid 11-hydroxylase); host or cells: NCI-H295R
T2 sequence (P15538 25-503): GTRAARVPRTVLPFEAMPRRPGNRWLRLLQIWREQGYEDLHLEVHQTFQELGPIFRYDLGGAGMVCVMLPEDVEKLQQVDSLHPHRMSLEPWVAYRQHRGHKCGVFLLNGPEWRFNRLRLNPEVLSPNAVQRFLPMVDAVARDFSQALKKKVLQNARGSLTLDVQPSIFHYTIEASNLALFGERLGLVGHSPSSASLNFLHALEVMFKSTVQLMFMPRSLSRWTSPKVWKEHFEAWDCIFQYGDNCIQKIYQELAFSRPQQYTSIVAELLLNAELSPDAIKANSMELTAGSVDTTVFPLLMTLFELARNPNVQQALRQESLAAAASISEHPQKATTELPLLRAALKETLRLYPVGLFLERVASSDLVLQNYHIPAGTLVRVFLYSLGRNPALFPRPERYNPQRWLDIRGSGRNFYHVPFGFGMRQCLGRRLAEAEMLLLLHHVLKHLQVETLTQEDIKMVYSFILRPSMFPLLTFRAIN
Excerpt: as §1, §2, §3, §4, §5, §6, §7

IC50 [1] | IC50 [2] | Structure (SMILES)
2 nM | 37 nM | COc1cncc(-c2cc3ccccc3n2C)c1 [Example 101, 2-(5-Methoxy-pyridin-3-yl)-1-methyl-1H-indole]
78 nM | 650 nM | Cn1c(-c2cncc(Cl)c2)c(C#N)c2ccccc21 [Example 123, 2-(5-Chloro-pyridin-3-yl)-1-methyl-1H-indole-3-carbonitrile]
2 nM | 3 nM | Cn1c(-c2cncc(CN3CCN(S(C)(=O)=O)CC3)c2)c(C#N)c2ccc(Cl)cc21 [Example 180, 6-Chloro-2-[5-(4-methanesulfonyl-piperazin-1-ylmethyl)-pyridin-3-yl]-1-methyl-1H-indole-3-carbonitrile]
4 nM | 20 nM | COCCOC(=O)NCc1cncc(-c2c(C#N)c3ccc(Cl)cc3n2C)c1 [Example 192]
3 nM | 19 nM | CC(C)NC(=O)NCc1cncc(-c2c(C#N)c3ccc(Cl)cc3n2C)c1 [Example 196, 1-[5-(6-Chloro-3-cyano-1-methyl-1H-indol-2-yl)-pyridin-3-ylmethyl]-3-isopropyl-urea]
2 nM | 213 nM | CCS(=O)(=O)NCc1cncc(-c2cc3ccc(Cl)cc3n2C)c1 [Example 206, N-[5-(6-Chloro-1-methyl-1H-indol-2-yl)-pyridin-3-ylmethyl]-ethanesulfonamide]
23 nM | 788 nM | Cn1c(-c2cncc(CNS(=O)(=O)CC(F)(F)F)c2)cc2ccc(Cl)cc21 [Example 209, 2,2,2-Trifluoro-ethanesulfonic acid [5-(6-chloro-1-methyl-1H-indol-2-yl)-pyridin-3-ylmethyl]-amide]
36 nM | 345 nM | CCS(=O)(=O)Nc1cncc(-c2cc3ccccc3n2C)c1 [Example 226, Ethanesulfonic acid [5-(1-methyl-1H-indol-2-yl)-pyridin-3-yl]-amide]
105 nM | > 1000 nM | CN(C)S(=O)(=O)Nc1cncc(-c2cc3ccccc3n2C)c1 [Example 228]
2 nM | 51 nM | CCS(=O)(=O)N(C)c1cncc(-c2cc3ccccc3n2C)c1 [Example 231, Ethanesulfonic acid methyl-[5-(1-methyl-1H-indol-2-yl)-pyridin-3-yl]-amide]
21 nM | 1100 nM | CCS(=O)(=O)Nc1cncc(-c2c(C)c3ccccc3n2C)c1 [Example 236, Ethanesulfonic acid [5-(1,3-dimethyl-1H-indol-2-yl)-pyridin-3-yl)-amide]
44 nM | > 1000 nM | CCS(=O)(=O)Nc1cncc(-c2c(COC)c3ccc(Cl)cc3n2C)c1 [Example 238, Ethanesulfonic acid [5-(1-methyl-3-methoxymethyl-6-chloro-1H-indol-2-yl)-pyridin-3-yl)-amide]

The next lines start with the compound.

Structure (SMILES) | IC50 [1] | IC50 [2]
Cc1c(-c2cccnc2)[nH]c2ccc(C#N)cc12 [Example 6, 3-Methyl-2-pyridin-3-yl-1H-indole-5-carbonitrile] | 1 nM | 7 nM
Cc1c(-c2cccnc2)n(Cc2cccc(C#N)c2)c2cc(F)ccc12 [Example 15, 3-(6-Fluoro-3-methyl-2-pyridin-3-yl-1H-indol-1-ylmethyl)-benzonitrile hydrochloride] | 27 nM | 447 nM
Cc1c(-c2cccnc2)n(Cc2ccc(C(=O)O)cc2)c2cccc(F)c12 [Example 33, 4-(4-Fluoro-3-methyl-2-pyridin-3-yl-1H-indol-1-ylmethyl)-benzoic acid] | 14 nM | 662 nM
N#Cc1cccc(C(=O)n2c(-c3cccnc3)cc3cc(C#N)ccc32)c1 [Example 42, 1-(3-Cyano-benzoyl)-2-pyridin-3-yl-1H-indole-5-carbonitrile] | 30 nM | 600 nM
Cc1c(-c2cccnc2)n(COC(=O)C(C)(C)C)c2ccc(Cl)cc12 [Example 65, 2,2-Dimethyl-propionic acid 5-chloro-3-methyl-2-pyridin-3-yl-indol-1-ylmethyl ester] | 10 nM | 240 nM
COc1ccncc1-c1cc2cc(C#N)ccc2[nH]1 [Example 90, 2-(4-Methoxy-pyridin-3-yl)-1H-indole-5-carbonitrile] | 40 nM | 400 nM
Cn1c(-c2cnccc2CO)cc2ccccc21 [Example 106, [3-(1-Methyl-1H-indol-2-yl)-pyridin-4-yl]-methanol] | 85 nM | 530 nM
Cn1c(-c2cnccc2Cl)cc2ccccc21 [Example 107, 2-(4-Chloro-pyridin-3-yl)-1-methyl-1H-indole] | 9 nM | 220 nM
Cn1c(-c2cncc(OS(C)(=O)=O)c2)c(C#N)c2ccccc21 [Example 138, Methanesulfonic acid 5-(3-cyano-1-methyl-1H-indol-2-yl)-pyridin-3-yl ester] | 43 nM | 326 nM
CC(C)S(=O)(=O)NCc1cncc(-c2c(C#N)c3ccc(Cl)cc3n2C)c1 [Example 186, Propane-2-sulfonic acid [5-(6-chloro-3-cyano-1-methyl-1H-indol-2-yl)-pyridin-3-ylmethyl]amide] | 21 nM | 390 nM
CC(C)C(=O)C1(CNc2cncc(-c3cc4ccccc4n3C)c2)CCC1 [Example 214, 2-Methyl-1-(1-{[5-(1-methyl-1H-indol-2-yl)-pyridin-3-ylamino]-methyl}-cyclobutyl)-propan-1-one] | 56 nM | 377 nM
COCCc1cncc(-c2c(C#N)c3ccccc3n2C)c1 [Example 217, 2-[5-(2-Methoxy-ethyl)-pyridin-3-yl]-1-methyl-1H-indole-3-carbonitrile] | 4 nM | 22 nM
CCc1c(-c2cncc(NS(=O)(=O)CC)c2)n(C)c2ccccc12 [Example 229, Ethanesulfonic acid [5-(1-methyl-3-ethyl-1H-indol-2-yl)-pyridin-3-yl]-amide] | 5 nM | 125 nM
CCS(=O)(=O)NCc1cncc(-c2c(C)c3ccccc3n2C)c1 [Example 237, N-((5-(1,3-Dimethyl-1H-indol-2-yl)pyridin-3-yl)methyl)ethanesulfonamide] | 5 nM | 1610 nM
